Results from patent US20230203099A1, “CYCLOPHILIN INHIBITORS AND USES THEREOF” (priority 2020, published 2023).
Like-named read-outs stand apart in the source and are kept apart here.

Assays:
permeabilized HepG2 = test: Calcium retention capacity (CRC) assay in permeabilized HepG2; format: cell-based; conditions: Homo sapiens
Method: The compounds are also tested in a calcium retention capacity (CRC) assay in permeabilized HepG2.
(§1) The compounds are supplied as a dry powder or oils and made up as a 10 mM stock solution in 100% DMSO. Subsequent dilutions were made in 100% DMSO for use in all assays.
Calcium Retention Capacity (CRC) Assay in Permeabilized HepG2
HepG2 cells are permeabilised with 100 μM digitonin for 10 min in ice cold buffer containing 1 mM EGTA. Following two wash steps to remove the digitonin, the cells are plated into 96 well black and clear plates at 1e^6 cell per well in 180 μL assay buffer containing 0.5 μM Calcium Green 5N. Compounds dilutions are made in DMSO to 1000-fold the final concentration, diluted 1:100 in assay buffer and added to the assay as 20 μL per well. The assay buffer contained 5 mM glutamate and 2.5 mM malate. The cell plate is immediately run on the FLIPR Tetra™ which added 5 μL of 200 μM (5 μM) calcium chloride every 5 minutes whilst reading the plate every 3 seconds. The area under the curve at each concentration of compound is calculated. EC50 values are calculated.
The assay as described above measures the loss of inhibition based on the release of calcium, which is determined by increased intensity of fluorescence reporting of the calcium-binding dye used in the assay.

Human CypD = Human CypD (Homo sapiens, UniProt P30405); test: Cyclophilin peptidyl-prolyl isomerase functional assay (PPIase), cyclophilin D; format: biochemical
Method: (§2) Cyclophilin A and D peptidyl-prolyl isomerase functional assays using human recombinant enzymes (PPlase assay), as well as in a calcineurin inhibition assay with and without cyclophilin A are conducted.
as §1
(§3) Cyclophilin Peptidyl-Prolyl Isomerase Functional Assay
(§4) Measurements are performed using an Agilent 8453 spectrophotometer. Assay buffer was cooled to 10° C. (with stirring) in a precision glass cuvette and inhibitor is added from a DMSO stock solution to afford a final concentration of <1% DMSO. A blank spectrum is obtained and then enzyme and substrate are added and the change in absorbance measured over 5 min. A first order rate is fitted to the absorbance data to obtain a rate constant (first 10 to 15 s were eliminated due to mixing). The catalytic rate is calculated from the enzymatic rate minus the background rate. The enzymatic rate constant, determined in duplicate at each inhibitor concentration, is plotted against inhibitor concentration and a non-linear fit by SigmaPlot generated a Ki.

[1] = target: recombinant Calcineurin (CaN) (Homo sapiens, UniProt P63098+Q08209); test: Calcineurin phosphatase inhibition assay without cyclophilin A; format: biochemical
recombinant Calcineurin (CaN), sequence (P63098 whole entry, other chains not shown): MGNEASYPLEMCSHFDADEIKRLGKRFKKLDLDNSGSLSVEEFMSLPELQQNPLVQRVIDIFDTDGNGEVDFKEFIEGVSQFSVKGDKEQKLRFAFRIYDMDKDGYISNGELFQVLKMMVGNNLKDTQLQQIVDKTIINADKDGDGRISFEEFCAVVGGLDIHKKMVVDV
Method: as §2, §1
(§5) Calcineurin Phosphatase Inhibition Assay With and Without Cyclophilin A
(§6) This colorimetric 96 well assay is designed for inhibitor screening of recombinant Calcineurin (CaN). […] In a 96-well plate, two dilution series are prepared, one with the cyclophilin A enzyme (7-point) and another without (4-point). An assay buffer/calcineurin/calmodulin master mix is added followed by the phosphopeptide substrate (RII). After incubation at 30° C. the reaction is stopped by the addition of malachite green/molybdate reagent. The coloured complex formed with liberated phosphate is quantified by reading the absorbance at 620 nm. The blank corrected data was plotted against inhibitor concentration to determine an IC50 value.

[2] = target: recombinant Calcineurin (CaN) + CypA (Homo sapiens, UniProt P62937+P63098+Q08209); test: Calcineurin phosphatase inhibition assay with cyclophilin A; format: biochemical; conditions: RII phosphopeptide substrate
recombinant Calcineurin (CaN) + CypA, sequence (P62937 whole entry, other chains not shown): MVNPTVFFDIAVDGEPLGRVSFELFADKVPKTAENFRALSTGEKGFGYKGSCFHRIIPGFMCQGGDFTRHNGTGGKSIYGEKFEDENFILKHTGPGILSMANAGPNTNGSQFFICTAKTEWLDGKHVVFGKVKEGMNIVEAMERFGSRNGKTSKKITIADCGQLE
recombinant Calcineurin (CaN) + CypA, sequence (P63098 whole entry, other chains not shown): as the sequence (P63098 whole entry, other chains not shown) above
Method: as §2, §1, §5, §6

Human CypA = Human CypA (Homo sapiens, UniProt P62937); test: Cyclophilin peptidyl-prolyl isomerase functional assay (PPIase), cyclophilin A; format: biochemical; conditions: human recombinant enzyme, 10° C.; read-out: Inhibition (Ki, nM) Human CypA
Human CypA, sequence (P62937 whole entry): as the sequence (P62937 whole entry, other chains not shown) above
Method: as §2, §1, §3, §4

[3] = permeabilized HepG2, Calcium Green 5N, read-out: Calcium Retention Capacity EC50
[4] = human recombinant enzyme, 10° C., read-out: Inhibition (Ki, nM) Human CypD
[5] = without cyclophilin A, RII phosphopeptide substrate, read-out: Calcineurin Inhibition (IC50, nM) −CypA

Human CypD, sequence (P30405 30-207): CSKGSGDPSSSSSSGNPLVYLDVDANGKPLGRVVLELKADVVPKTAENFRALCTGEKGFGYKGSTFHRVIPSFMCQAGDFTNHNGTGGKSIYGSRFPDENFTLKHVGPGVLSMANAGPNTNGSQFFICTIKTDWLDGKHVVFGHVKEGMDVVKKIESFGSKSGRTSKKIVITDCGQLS

Structure (SMILES)	EC50 (permeabilized HepG2; [3])	Ki (Human CypD; [4])	IC50 [1, 5]	IC50 [2]	Ki (Human CypA)	EC50 (permeabilized HepG2; HepG2, read-out: Calcium Retention Capacity EC50 (nM))	Ki (Human CypD)	IC50 [1]
CC[C@@H]1NC(=O)[C@H]([C@H](O)[C@H](C)C/C=C/c2cccs2)N(C)C(=O)[C@H](C(C)C)N(C)C(=O)[C@H](CC(C)C)N(C)C(=O)[C@H](CC(C)C)N(C)C(=O)[C@@H](C)NC(=O)[C@H](C)NC(=O)[C@H](CC(C)C)N(C)C(=O)[C@H](C(C)C)NC(=O)[C@H](CC(C)C)N(C)C(=O)C(OCCN(C)C)N(C)C1=O (some centres unmarked) [Compound 4]	867 nM	11 nM	1160 nM					
CC[C@@H]1NC(=O)[C@H]([C@H](O)[C@H](C)C/C=C/c2ccc(OC)cc2)N(C)C(=O)[C@H](C(C)C)N(C)C(=O)[C@H](CC(C)C)N(C)C(=O)[C@H](CC(C)C)N(C)C(=O)[C@@H](C)NC(=O)[C@H](C)NC(=O)[C@H](CC(C)C)N(C)C(=O)[C@H](C(C)C)NC(=O)[C@H](CC(C)C)N(C)C(=O)C(OCCN(C)C)N(C)C1=O (some centres unmarked) [Compound 5]	623 nM	8.4 nM	2660 nM	2430 nM	5.5 nM			
CC[C@@H]1NC(=O)[C@H]([C@H](O)[C@H](C)C/C=C/c2ccc(C)cc2)N(C)C(=O)[C@H](C(C)C)N(C)C(=O)[C@H](CC(C)C)N(C)C(=O)[C@H](CC(C)C)N(C)C(=O)[C@@H](C)NC(=O)[C@H](C)NC(=O)[C@H](CC(C)C)N(C)C(=O)[C@H](C(C)C)NC(=O)[C@H](CC(C)C)N(C)C(=O)C(OCCN(C)C)N(C)C1=O (some centres unmarked) [Compound 2]						512 nM	11 nM	3950 nM
CC[C@@H]1NC(=O)[C@H]([C@H](O)[C@H](C)C/C=C/c2ccc3ccccc3c2)N(C)C(=O)[C@H](C(C)C)N(C)C(=O)[C@H](CC(C)C)N(C)C(=O)[C@H](CC(C)C)N(C)C(=O)[C@@H](C)NC(=O)[C@H](C)NC(=O)[C@H](CC(C)C)N(C)C(=O)[C@H](C(C)C)NC(=O)[C@H](CC(C)C)N(C)C(=O)C(OCCN(C)C)N(C)C1=O (some centres unmarked) [Compound 6]	964 nM	6.5 nM	> 10000 nM					
CC[C@@H]1NC(=O)[C@H]([C@H](O)[C@H](C)C/C=C/c2ccc(C(F)(F)F)cc2)N(C)C(=O)[C@H](C(C)C)N(C)C(=O)[C@H](CC(C)C)N(C)C(=O)[C@H](CC(C)C)N(C)C(=O)[C@@H](C)NC(=O)[C@H](C)NC(=O)[C@H](CC(C)C)N(C)C(=O)[C@H](C(C)C)NC(=O)[C@H](CC(C)C)N(C)C(=O)C(OCCN(C)C)N(C)C1=O (some centres unmarked) [Compound 3]	1370 nM	9.4 nM	> 10000 nM					
